Data on 32 molecules can be found in US20230416228A1 (Forkhead Biotherapeutics, Inc., priority 2020, published 2023).

Each structure is given as a SMILES string. Where only a bound is given, the exact number is not on record here.

For the test, the target named is T1, human FOXO1 (constitutively active form Thr24Ala, Ser256Ala, Ser319Ala) (Homo sapiens, UniProt Q12778, S256A/S319A/T24A).
T1 construct: expressed in transfected cells; host or cells: HEK293 cells transfected with pcDNA3.1 plasmid
T1 sequence (Q12778 whole entry T24A/S256A/S319A): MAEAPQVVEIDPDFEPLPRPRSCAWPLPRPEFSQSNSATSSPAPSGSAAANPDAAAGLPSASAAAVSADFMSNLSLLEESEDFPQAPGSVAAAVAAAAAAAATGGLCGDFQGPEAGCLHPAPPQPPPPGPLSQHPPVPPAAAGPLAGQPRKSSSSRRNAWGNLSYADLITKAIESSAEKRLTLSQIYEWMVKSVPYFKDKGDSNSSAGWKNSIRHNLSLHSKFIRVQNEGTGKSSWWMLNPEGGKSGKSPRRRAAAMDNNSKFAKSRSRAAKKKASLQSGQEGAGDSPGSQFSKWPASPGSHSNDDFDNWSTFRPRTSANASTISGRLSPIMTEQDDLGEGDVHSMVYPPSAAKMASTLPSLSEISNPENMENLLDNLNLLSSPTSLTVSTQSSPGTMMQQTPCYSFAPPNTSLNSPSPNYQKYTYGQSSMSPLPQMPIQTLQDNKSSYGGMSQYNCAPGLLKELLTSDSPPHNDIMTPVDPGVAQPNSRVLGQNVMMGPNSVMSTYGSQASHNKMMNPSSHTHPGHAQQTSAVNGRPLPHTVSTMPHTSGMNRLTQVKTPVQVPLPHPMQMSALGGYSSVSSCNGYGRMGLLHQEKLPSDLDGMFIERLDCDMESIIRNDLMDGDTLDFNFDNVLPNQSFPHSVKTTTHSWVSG
The test can be described thus: FOXO1 inhibitor activity assay: cell-based transcriptional (luciferase) reporter assay in HEK293 cells. The note with it: HEK293 cells transfected with insulin response element firefly luciferase reporter, FOXO1 and Renilla luciferase; 10-point dose response 50 μM to 2.5 nM; 24 hours. The method in brief:
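IC50 and maximal inhibition were fitted by 4-parameter logistic regression on normalized firefly/Renilla luciferase ratios. The 0% reference used RFP in place of FOXO1, and the 100% reference was DMSO-only with all plasmids.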
(Reporter assays use an easily measured gene product as a stand-in for the process of interest.)

Turning to `C[C@H](CO)Nc1ccc(C(=O)Nc2cc(-c3nc4ccccc4[nH]3)[nH]n2)cn1` [Compound A-63, N-[5-(1H-benzimidazol-2-yl)-1H-pyrazol-3-yl]-6-[[(1R)-2-hydroxy-1-methyl-ethyl]amino]pyridine-3-carboxamide], the concentration for half-maximal inhibition (IC50) (usually the concentration that gives 50% inhibition) was greater than 1000 nM.

The molecule `COC1CN(c2ncc(C(=O)Nc3cc(-c4nc5ccccc5[nH]4)[nH]n3)cn2)C1` [Compound A-183, N-[5-(1H-benzimidazol-2-yl)-1H-pyrazol-3-yl]-2-(3-methoxyazetidin-1-yl)pyrimidine-5-carboxamide] returned an IC50 greater than 1000 nM.

Take `O=C(Nc1cc(-c2nc3cc(Cl)ccc3[nH]2)[nH]n1)c1ccc(N2CCC(CO)CC2)nc1` [Compound A-86, N-[5-(5-chloro-1H-benzimidazol-2-yl)-1H-pyrazol-3-yl]-6-[4-(hydroxymethyl)-1-piperidyl]pyridine-3-carboxamide]: the IC50 is greater than 1000 nM.

As for `Cn1nc(NC(=O)c2ccc(N3CCN(C(=O)CN)CC3)nc2)cc1-c1nc2ccccc2[nH]1` [Compound A-289, 6-[4-(2-aminoacetyl)piperazin-1-yl]-N-[5-(1H-benzimidazol-2-yl)-1-methyl-pyrazol-3-yl]pyridine-3-carboxamide], the IC50 was 100 to 300 nM.

`COCCn1nc(NC(=O)c2ccc(N3CC(OC)C3)nc2)cc1-c1nc2ccccc2[nH]1` [Compound A-176, N-[5-(1H-benzimidazol-2-yl)-1-(2-methoxyethyl)pyrazol-3-yl]-6-(3-methoxyazetidin-1-yl)pyridine-3-carboxamide] came in with a 50% inhibitory concentration (IC50) greater than 1000 nM.

`CC(C)C(=O)N1CCN(c2ccc(C(=O)Nc3cc(-c4nc5ccccc5[nH]4)n(C)n3)cn2)CC1` [Compound A-244, N-[5-(1H-benzimidazol-2-yl)-1-methyl-pyrazol-3-yl]-6-[4-(2-methylpropanoyl)piperazin-1-yl]pyridine-3-carboxamide] returned an IC50 of 100 to 300 nM.

`COc1ccc(C(=O)Nc2cc(-c3cn4ccccc4n3)[nH]n2)cc1Cl` [Compound A-112, 3-chloro-N-(5-imidazo[1,2-a]pyridin-2-yl-1H-pyrazol-3-yl)-4-methoxy-benzamide]: the IC50 lay within 300 to 1000 nM.

Take `O=C(Nc1cc(-c2nc3ccccc3[nH]2)[nH]n1)c1ccc(N2CCC(CO)CC2)nc1` [Compound A-67, N-[5-(1H-benzimidazol-2-yl)-1H-pyrazol-3-yl]-6-[4-(hydroxymethyl)-1-piperidyl]pyridine-3-carboxamide]: the IC50 is less than 100 nM.

Molecule `O=C(Nc1cc(-c2nc3ccccc3[nH]2)[nH]n1)c1ccc(N2CC[C@@H](O)C2)cc1` [Compound A-40, N-[5-(1H-benzimidazol-2-yl)-1H-pyrazol-3-yl]-4-[(3R)-3-hydroxypyrrolidin-1-yl]benzamide] returned an IC50 of less than 100 nM.

Take `COCCN1CCN(c2ccc(C(=O)Nc3cc(-c4nc5ccccc5[nH]4)n(CCOC)n3)cn2)CC1` [Compound A-178, N-[5-(1H-benzimidazol-2-yl)-1-(2-methoxyethyl)pyrazol-3-yl]-6-[4-(2-methoxyethyl)piperazin-1-yl]pyridine-3-carboxamide]: the IC50 lay in the range of 300 to 1000 nM.

`Cn1nc(NC(=O)c2ccc(N3CCOCC3)cc2)cc1-c1nc2ccccc2[nH]1` [Compound A-95, N-[5-(1H-benzimidazol-2-yl)-1-methyl-pyrazol-3-yl]-4-morpholino-benzamide] came in with an IC50 of 100 to 300 nM.

As to `COc1cc(F)c2[nH]c(-c3cc(NC(=O)c4ccc(N5CCN(C6COC6)CC5)nc4)nn3C)nc2c1` [Compound A-214, N-[5-(7-fluoro-5-methoxy-1H-benzimidazol-2-yl)-1-methyl-pyrazol-3-yl]-6-[4-(oxetan-3-yl)piperazin-1-yl]pyridine-3-carboxamide], the IC50 was less than 100 nM.

On to `Cn1nc(NC(=O)c2ccc(N3CCN4C(=O)CC[C@H]4C3)nc2)cc1-c1nc2ccccc2[nH]1` [Compound A-250], for which the half-maximal inhibitory concentration (IC50) lay in the range of 300 to 1000 nM.

As to `Cc1nc(N2CCN(C)CC2)ccc1C(=O)Nc1cc(-c2nc3ccccc3[nH]2)n(C)n1` [Compound A-253, N-[5-(1H-benzimidazol-2-yl)-1-methyl-pyrazol-3-yl]-2-methyl-6-(4-methylpiperazin-1-yl)pyridine-3-carboxamide], the IC50 lay in the range of 100 to 300 nM.

In the case of `O=C(Nc1cc(-c2nc3cc(Cl)ccc3[nH]2)[nH]n1)c1ccc(N2CCOCC2)nc1` [Compound A-88, N-[5-(5-chloro-1H-benzimidazol-2-yl)-1H-pyrazol-3-yl]-6-morpholino-pyridine-3-carboxamide], the IC50 is greater than 1000 nM.

In the case of `O=C(Nc1cc(-c2nc3ccccc3[nH]2)[nH]n1)c1ccc(N2CCN(C3COC3)CC2)nc1` [Compound A-171, N-[5-(1H-benzimidazol-2-yl)-1H-pyrazol-3-yl]-6-[4-(oxetan-3-yl)-piperazin-1-yl]pyridine-3-carboxamide], the IC50 was less than 100 nM.

The molecule `Cn1nc(NC(=O)c2ccc(N3CCC(N4CCOCC4)CC3)nc2)cc1-c1nc2cc(F)ccc2[nH]1` [Compound A-168, N-[5-(5-fluoro-1H-benzimidazol-2-yl)-1-methyl-pyrazol-3-yl]-6-(4-morpholino-1-piperidyl)pyridine-3-carboxamide] came in with an IC50 of 100 to 300 nM.

With `O=C(Nc1cc(-c2nc3cccc(F)c3[nH]2)[nH]n1)c1ccc(N2CCC(CO)CC2)nc1` [Compound A-83, N-[5-(7-fluoro-1H-benzimidazol-2-yl)-1H-pyrazol-3-yl]-6-[4-(hydroxymethyl)-1-piperidyl]pyridine-3-carboxamide], the IC50 is less than 100 nM.

The molecule `CN1CCN(c2ncc(C(=O)Nc3cc(-c4nc5ccccc5[nH]4)[nH]n3)cn2)CC1` [Compound A-180, N-[5-(1H-benzimidazol-2-yl)-1H-pyrazol-3-yl]-2-(4-methylpiperazin-1-yl)pyrimidine-5-carboxamide] registered an IC50 of 100 to 300 nM.

In turn, `COc1cc(F)c2[nH]c(-c3cc(NC(=O)c4ccc(N5CCN(CCO)CC5)nc4)nn3C)nc2c1` [Compound A-211, N-[5-(7-fluoro-5-methoxy-1H-benzimidazol-2-yl)-1-methyl-pyrazol-3-yl]-6-[4-(2-hydroxyethyl)piperazin-1-yl]pyridine-3-carboxamide] yielded an IC50 of 100 to 300 nM.

Molecule `COc1ccc2[nH]c(-c3cc(NC(=O)c4ccc(N5CCOCC5)nc4)n[nH]3)nc2c1` [Compound A-111, N-[5-(5-methoxy-1H-benzimidazol-2-yl)-1H-pyrazol-3-yl]-6-morpholino-pyridine-3-carboxamide] gave an IC50 greater than 1000 nM.

For `Cc1nc(N2CCN(C3COC3)CC2)ccc1C(=O)Nc1cc(-c2nc3ccccc3[nH]2)n(C)n1` [Compound A-264, N-[5-(1H-benzimidazol-2-yl)-1-methyl-pyrazol-3-yl]-2-methyl-6-[4-(oxetan-3-yl)piperazin-1-yl]pyridine-3-carboxamide], the IC50 lay within 300 to 1000 nM.

`O=C(Nc1cc(-c2nc3cccc(F)c3[nH]2)[nH]n1)c1ccc(N2CCOCC2)nc1` [Compound A-85, N-[5-(7-fluoro-1H-benzimidazol-2-yl)-1H-pyrazol-3-yl]-6-morpholino-pyridine-3-carboxamide] gave an IC50 of less than 100 nM.

`Cn1nc(NC(=O)c2ccc(N3CCC(N4CCOCC4)CC3)nc2)cc1-c1nc2ccccc2[nH]1` [Compound A-208, N-[5-(1H-benzimidazol-2-yl)-1-methyl-pyrazol-3-yl]-6-(4-morpholino-1-piperidyl)pyridine-3-carboxamide] gave an IC50 of 100 to 300 nM.

As for `CN1CCN(c2ccc(C(=O)Nc3cc(-c4nc5ccccc5[nH]4)n(C)n3)cn2)CC1` [Compound A-209, N-[5-(1H-benzimidazol-2-yl)-1-methyl-pyrazol-3-yl]-6-(4-methyl-piperazin-1-yl)pyridine-3-carboxamide], the IC50 was less than 100 nM.

Take `COCC1CN(c2ccc(C(=O)Nc3cc(-c4nc5ccccc5[nH]4)n(C)n3)cn2)C1` [Compound A-272, N-[5-(1H-benzimidazol-2-yl)-1-methyl-pyrazol-3-yl]-6-[3-(methoxymethyl)azetidin-1-yl]pyridine-3-carboxamide]: the IC50 is less than 100 nM.

Turning to `O=C(Nc1cc(-c2nc3ccccc3[nH]2)[nH]n1)c1ccc(N2CCCC(O)C2)nc1` (centres unmarked) [Compound A-66, N-[5-(1H-benzimidazol-2-yl)-1H-pyrazol-3-yl]-6-(3-hydroxy-1-piperidyl)pyridine-3-carboxamide], the IC50 lay within 300 to 1000 nM.

For `O=C(Nc1cc(-c2nc3cc(F)ccc3[nH]2)[nH]n1)c1ccc(N2CCOCC2)nc1` [Compound A-82, N-[5-(5-fluoro-1H-benzimidazol-2-yl)-1H-pyrazol-3-yl]-6-morpholino-pyridine-3-carboxamide], the IC50 is less than 100 nM.

The molecule `O=C(Nc1cc(-c2nc3ccccc3[nH]2)[nH]n1)c1ccc(N2CCS(=O)(=O)CC2)nc1` [Compound A-49, N-[5-(1H-benzimidazol-2-yl)-1H-pyrazol-3-yl]-6-(1,1-dioxo-1,4-thiazinan-4-yl)pyridine-3-carboxamide] yielded an IC50 of 300 to 1000 nM.

In the case of `Cn1nc(NC(=O)c2ccc(N3CCO[C@H](CO)C3)nc2)cc1-c1nc2ccccc2[nH]1` [Compound A-251, N-[5-(1H-benzimidazol-2-yl)-1-methyl-pyrazol-3-yl]-6-[(2S)-2-(hydroxymethyl)morpholin-4-yl]pyridine-3-carboxamide], the IC50 was less than 100 nM.

Molecule `Cc1cc(N2CCOCC2)ncc1C(=O)Nc1cc(-c2nc3ccccc3[nH]2)n(C)n1` [Compound A-232, N-[5-(1H-benzimidazol-2-yl)-1-methyl-pyrazol-3-yl]-4-methyl-6-morpholino-pyridine-3-carboxamide] had an IC50 greater than 1000 nM.

As for `COc1cc(F)c2[nH]c(-c3cc(NC(=O)c4ccc(N5CC(OC)C5)nc4)nn3C)nc2c1` [Compound A-187, N-[5-(7-fluoro-5-methoxy-1H-benzimidazol-2-yl)-1-methyl-pyrazol-3-yl]-6-(3-methoxyazetidin-1-yl)pyridine-3-carboxamide], the IC50 fell in the range of 300 to 1000 nM.
